In patent publication US10792272B2, “Methods for treatment of Clostridium difficile infections” (priority 2016, dated 2020):
Values after ≈ are worked out from the molar mass of the structure shown. Where two headings read alike, the source gives them in different places.

Columns and labels:
[1] = tested on: C. difficile 4118 (CD4118, ATCC BAA-1870, BI/NAP1/027); assay: MIC by broth microdilution against C. difficile 4118; assay type: cell-based, Clostridium difficile; conditions: Clostridioides difficile
S. aureus RN4220 = assay: MIC against aerobic bacteria; assay type: cell-based; conditions: Staphylococcus aureus, RN4220; aerobic; read-out: MIC S. aureus RN4220
C. sporogenes ATCC 15579 = assay: microbe, parasite or virus in culture; assay type: cell-based, Clostridium sporogenes; conditions: Clostridium sporogenes, ATCC15579, read-out: MIC C. sporogenes ATCC 15579
[2] = tested on: B. thetaiotaomicron ATCC 29148; assay: microbe, parasite or virus in culture; assay type: cell-based; conditions: Bacteroides thetaiotaomicron, ATCC29148, read-out: MIC B. thetaiotaomicron ATCC 29148
[3] = in vivo; cited from earlier work
[4] = tested on: Clostridium difficile strain 4118; assay: Minimum bactericidal concentration (MBC), logarithmic- and stationary-phase cells; assay type: cell-based; conditions: Clostridioides difficile, 3-log reduction of inoculum
Procedure: The MBClog values of the protonophores were determined to be 0.25-2 μg/mL (˜4 to 8-fold greater than their respective MIC values).
Clostridium difficile strain 4118 was grown to OD600˜0.4-0.5 (logarithmic phase) or for 24 h (stationary phase), and thereafter added to two-fold serial dilutions of test compounds. Cultures were incubated for 20-24 h at 37° C., and then viable counts were enumerated on BHIS agar plates. […] MBC measurements were performed in duplicate.

B. subtilis ATCC 6051 = assay: MIC against aerobic bacteria; assay type: cell-based, Bacillus subtilis; conditions: Bacillus subtilis, ATCC6051, read-out: MIC B. subtilis ATCC 6051
S. epidermidis 1457 = assay: MIC against aerobic bacteria; assay type: cell-based; conditions: Staphylococcus epidermidis, 1457, read-out: MIC S. epidermidis 1457
A. baumannii M2 = assay: MIC against aerobic bacteria; assay type: cell-based; conditions: Acinetobacter baumannii, M2, read-out: MIC A. baumannii M2
P. aeruginosa PAO1 = assay: MIC against aerobic bacteria; assay type: cell-based, Pseudomonas aeruginosa; conditions: Pseudomonas aeruginosa, PAO1, read-out: MIC P. aeruginosa PAO1
[5] = tested on: C. clostridioforme ATCC 25537; assay: MIC against anaerobic bacteria; assay type: cell-based, Clostridium clostridioforme; conditions: Clostridium, ATCC25537, read-out: MIC C. clostridioforme ATCC 25537
P. distasonis ATCC 8503 = assay: MIC against anaerobic bacteria; assay type: cell-based, Parabacteroides distasonis; conditions: Parabacteroides distasonis, ATCC8503, read-out: MIC P. distasonis ATCC 8503
P. nigrescens ATCC 33563 = assay: MIC against anaerobic bacteria; assay type: cell-based, Prevotella nigrescens; conditions: Prevotella nigrescens, ATCC33563, read-out: MIC P. nigrescens ATCC 33563
sheep erythrocytes = assay: Hemolysis assay; conditions: tested at 32 μg/mL; 37° C., 1 h
Procedure: Sheep red blood cells (Innovative Research, Novi, Mich., USA) were washed three times with PBS pH 7.4. A 3% cell suspension in PBS (100 μL) was added to test compounds in PBS (100 μL), and then incubated at 37° C. for 1 h. The plate was centrifuged at 500×g for 10 min, and supernatants (100 μL) were transferred to a clean 96-well plate. Hemolysis was determined by measuring absorbance at 540 nm, with 1% Triton X-100 as the positive control and 0.5% DMSO in PBS as the negative control. Hemolysis assays were performed in triplicate.

liver carcinoma HepG2 = assay: In vitro cytotoxicity MTS assay, HepG2
[6] = tested on: embryonic kidney HEK 293T/17; assay: In vitro cytotoxicity MTS assay, HEK 293T/17

With Cc1cc(C(C#N)c2ccc(Cl)cc2)c(Cl)cc1NC(=O)c1cc(I)cc(I)c1O (stereo not drawn) [Closantel, reference compound] the MIC ([1]; ATCCBAA1870, Table 1, strain 4118, 20-24 h, 37° C., read-out: MIC C. difficile 4118) was 0.25 mg/L (≈ 0.377 µM), the MIC (S. aureus RN4220) was 0.25 mg/L (≈ 0.377 µM) and the MIC (C. sporogenes ATCC 15579) was 1 mg/L (≈ 1.51 µM). The MIC [2] was > 32 mg/L and the “excreted unchanged in the feces” value [3] was ≤ 90%.
Molecule O=C(Nc1ccc(Oc2ccc(Cl)cc2)c(Cl)c1)c1cc(I)cc(I)c1O [Rafoxanide, rafoxanide, reference compound] has an MIC ([1]; ATCCBAA1870) of 0.13 mg/L (≈ 0.208 µM), an MIC ([1]; ATCCBAA1870, read-out: MIC C. difficile 4118) of 0.13 mg/L (≈ 0.208 µM) and an MBC ([4]; logarithmic-phase cells of strain 4118, read-out: MBClog) of 0.5 mg/L (≈ 0.799 µM). For the same molecule, the MBC ([4]; stationary-phase cells of strain 4118, read-out: MBCstat) was 1 mg/L (≈ 1.6 µM), the MIC (B. subtilis ATCC 6051) was ≤ 0.03 mg/L and the MIC (S. aureus RN4220) was 0.25 mg/L (≈ 0.399 µM). The MIC (S. epidermidis 1457) was ≤ 0.03 mg/L, the MIC (A. baumannii M2) was > 32 mg/L and the MIC (P. aeruginosa PAO1) was > 32 mg/L. For the same molecule, the MIC (C. sporogenes ATCC 15579) was 1 mg/L (≈ 1.6 µM), the MIC [5] was 1 mg/L (≈ 1.6 µM) and the MIC [2] was > 32 mg/L. For the same molecule, the MIC (P. distasonis ATCC 8503) was 8 mg/L (≈ 12.8 µM), the MIC (P. nigrescens ATCC 33563) was 8 mg/L (≈ 12.8 µM) and the “rupture of red blood cells (hemolysis)” value (sheep erythrocytes) was “did not cause rupture of red blood cells”. The “cell viability HepG2 (MTS)” value (liver carcinoma HepG2; 8 μg/mL, 16 h) was “no apparent effect on mammalian cell viability”, the “in vitro toxicity toward HepG2 compared with niclosamide” value (liver carcinoma HepG2; relative to niclosamide) was “comparably lower in vitro toxicities” and the “cell viability HEK 293T/17 (MTS)” value ([6]; 8 μg/mL, 16 h) was “no apparent effect on mammalian cell viability”. For the same molecule, the “in vitro toxicity toward HEK 293T/17 compared with niclosamide” value ([6]; relative to niclosamide) was “comparably lower in vitro toxicities”.
